Measurements: patent US11866430B2, “Naphthyridinone compounds useful as T cell activators” (priority 2018, dated 2024)
pIC50: −log10 of the molar value.

How the values were obtained:
[1] = target: T1, human DGKζ (Homo sapiens (Human), UniProt Q13574); assay: DGKζ LIPGLO assay (extruded liposome substrate); format: biochemical
Experimental: (§1) The DGKα and DGKζ reactions were performed using either extruded liposome (DGKα and DGKζ LIPGLO assays) or detergent/lipid micelle substrate (DGKα and DGKζ assays). The reactions were carried out in 50 mM MOPS pH 7.5, 100 mM NaCl, 10 mM MgCl2, 1 μM CaCl2, and 1 mM DTT (assay buffer). The reactions using a detergent/lipid micelle substrate also contained 50 mM octyl B-D-glucopyranoside.
(§2) A 5 mL enzyme/substrate solution at 2× final reaction concentration was prepared by combining 2.5 mL 4× enzyme solution (20 nM DGKα or DGKζ (prepared as described below) in assay buffer) and 2.5 mL of either 4× liposome or 4× detergent/lipid micelle solution (compositions described below) and incubated at room temperature for 10 minutes. Next, 1 μL 2× enzyme/substrate solution was added to wells containing the test compound and reactions were initiated with the addition of 1 μL 300 uM ATP. The reactions were allowed to proceed for 1 hr, after which 2 μL Glo Reagent (Promega V9101) was added and incubated for 40 minutes. Next, 4 μL Kinase Detection Reagent was added and incubated for 30 minutes. Luminescence was recorded using an EnVision microplate reader. […] The compounds were evaluated at 11 concentrations to determine IC50.
(§3) The PC, DAG, and PS were dissolved in chloroform, combined, and dried in vacuo to a thin film. The lipids were hydrated to 20 mM in 50 mM MOPS pH 7.5, 100 mM NaCl, 5 mM MgCl2, and were freeze-thawed five times. The lipid suspension was extruded through a 100 nm polycarbonate filter eleven times. […] The liposome preparation was stored at 4° C. for as long as four weeks.
Baculovirus amplification was achieved using infected Sf9 cells at 1:1500 virus/cell ratios, and grown for 65 hours at 27° C. post-transfection.
(§4) The expression scale up for each protein was carried out in the Cellbag 50 L WAVE-Bioreactor System 20/50 from GE Healthcare Bioscience. 12 L of 2×10^6 cells/mL Sf9 cells (Expression System, Davis, Calif.) grown in ESF921 insect medium (Expression System) were infected with virus stock at 1:200 virus/cell ratios, and grown for 66-68 hours at 27° C. post-infection. The infected cell culture was harvested by centrifugation at 2000 rpm for 20 min 4° C. in a SORVALL® RC12BP centrifuge. The cell pellets were stored at −70° C. until purification.
The cells were lysed using nitrogen cavitation method with a nitrogen bomb (Parr Instruments), and the lysates were clarified by centrifugation. […] The three steps column chromatography included nickel affinity resin capture (i.e. HisTrap FF crude, GE Healthcare), followed by size exclusion chromatography (i.e. HiLoad 26/600 Superdex 200 prep grade, GE Healthcare for DGK-alpha, and HiPrep 26/600 Sephacryl S 300_HR, GE Healthcare for DGK-zeta). The third step was ion exchange chromatography, and differed for the two isoforms. DGKα was polished using Q-Sepharose anion exchange chromatography (GE Healthcare). DGKζ was polished using SP Sepharose cation exchange chromatography (GE Healthcare). The proteins were delivered at concentrations of ≥2 mg/mL. The formulation buffers were identical for both proteins: 50 mM Hepes, pH 7.2, 500 mM NaCl, 10% v/v glycerol, 1 mM TCEP, and 0.5 mM EDTA.

[2] = target: T2, human DGKα (Homo sapiens (Human), UniProt P23743); assay: DGKα LIPGLO assay (extruded liposome substrate); format: biochemical
T2 sequence (P23743 other isoform, or with tags, fused parts or gaps): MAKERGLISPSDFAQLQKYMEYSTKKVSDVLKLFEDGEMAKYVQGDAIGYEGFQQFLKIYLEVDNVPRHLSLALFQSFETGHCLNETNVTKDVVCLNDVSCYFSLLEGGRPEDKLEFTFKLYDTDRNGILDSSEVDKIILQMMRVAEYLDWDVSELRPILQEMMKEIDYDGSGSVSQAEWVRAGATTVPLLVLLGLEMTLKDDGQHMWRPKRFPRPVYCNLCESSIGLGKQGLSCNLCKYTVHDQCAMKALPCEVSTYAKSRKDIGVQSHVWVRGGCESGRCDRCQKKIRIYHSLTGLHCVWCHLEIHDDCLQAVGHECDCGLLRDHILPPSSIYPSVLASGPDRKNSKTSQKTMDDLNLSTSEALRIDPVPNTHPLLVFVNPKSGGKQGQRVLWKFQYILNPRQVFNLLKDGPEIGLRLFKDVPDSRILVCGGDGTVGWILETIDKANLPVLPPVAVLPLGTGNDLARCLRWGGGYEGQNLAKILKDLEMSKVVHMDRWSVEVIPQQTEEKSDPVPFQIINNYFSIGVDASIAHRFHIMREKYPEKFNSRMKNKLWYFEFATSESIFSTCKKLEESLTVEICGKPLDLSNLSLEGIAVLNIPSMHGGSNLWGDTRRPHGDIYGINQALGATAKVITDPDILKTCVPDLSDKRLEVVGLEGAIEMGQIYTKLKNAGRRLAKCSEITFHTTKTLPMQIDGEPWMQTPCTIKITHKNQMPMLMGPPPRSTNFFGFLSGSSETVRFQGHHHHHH
Experimental: as §1, with “B-D-glucopyranoside. […] The lipid substrate concentrations were […], 0.25 mM DAG, and 2.75 mM PC for the extruded liposome reactions.” for “B-D-glucopyranoside.”
as §2, with “The compound inhibition studies were carried out as follows: 50 nL droplets of each test compound (top concentration 10 mM with 11 point, 3-fold dilution series for each compound) solubilized in DMSO were transferred to wells of a white 1536 well plate (Corning 3725). A 5” for “A 5”
as §3
Human DGK-alpha-TVMV-His-pFBgate and human DCK-zeta-transcript variant-2-TVMV-His-pFBgate baculovirus samples were generated using the Bac-to-Bac baculovirus expression system (Invitrogen) according to the manufacturer's protocol. The DNA used for expression of DGK-alpha and DGK-zeta have SEQ ID NOs: 1 and 3, respectively. Baculovirus amplification was achieved using infected Sf9 cells at 1:1500 virus/cell ratios, and grown for 65 hours at 27° C. post-transfection.
as §4
Full length human DGKα and DGKζ, each expressed containing a TVMV-cleavable C-terminal Hexa-His tag sequence (SEQ ID NOs: 2 and 4, respectively) and produced as described above, were purified from Sf) baculovirus-infected insect cell paste. The cells were lysed using nitrogen cavitation method with a nitrogen bomb (Parr Instruments), and the lysates were clarified by centrifugation. […] The three steps column chromatography included nickel affinity resin capture (i.e. HisTrap FF crude, GE Healthcare), followed by size exclusion chromatography (i.e. HiLoad 26/600 Superdex 200 prep grade, GE Healthcare for DGK-alpha, and HiPrep 26/600 Sephacryl S 300_HR, GE Healthcare for DGK-zeta). The third step was ion exchange chromatography, and differed for the two isoforms.

[3] = tested on: pre-activated CD4 T cells and Raji cells; assay: Raji CD4 T Cell IL2 Assay; format: cell-based; conditions: Homo sapiens, Raji
[4] = target: T2, human DGKα; assay: biochemical; conditions: detergent/lipid micelle substrate; read-out: DGKα IC50
Summary of the method: (§5)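 Full-length human DGKζ (and DGKα), C-terminal His-tagged, Sf9-expressed, with phosphatidylserine/DAG micelles in 50 mM octyl glucoside; buffer 50 mM MOPS pH 7.5, 100 mM NaCl, 10 mM MgCl2, 1 μM CaCl2, 1 mM DTT.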

[5] = target: T1, human DGKζ; assay: DGKζ assay (detergent/lipid micelle substrate); format: biochemical
Summary of the method: as §5

[6] = extruded liposome substrate, read-out: DGKζ LIPGLO IC50
[7] = detergent/lipid micelle substrate, read-out: DGKζ IC50

T1 sequence (Q13574 other isoform, or with tags, fused parts or gaps): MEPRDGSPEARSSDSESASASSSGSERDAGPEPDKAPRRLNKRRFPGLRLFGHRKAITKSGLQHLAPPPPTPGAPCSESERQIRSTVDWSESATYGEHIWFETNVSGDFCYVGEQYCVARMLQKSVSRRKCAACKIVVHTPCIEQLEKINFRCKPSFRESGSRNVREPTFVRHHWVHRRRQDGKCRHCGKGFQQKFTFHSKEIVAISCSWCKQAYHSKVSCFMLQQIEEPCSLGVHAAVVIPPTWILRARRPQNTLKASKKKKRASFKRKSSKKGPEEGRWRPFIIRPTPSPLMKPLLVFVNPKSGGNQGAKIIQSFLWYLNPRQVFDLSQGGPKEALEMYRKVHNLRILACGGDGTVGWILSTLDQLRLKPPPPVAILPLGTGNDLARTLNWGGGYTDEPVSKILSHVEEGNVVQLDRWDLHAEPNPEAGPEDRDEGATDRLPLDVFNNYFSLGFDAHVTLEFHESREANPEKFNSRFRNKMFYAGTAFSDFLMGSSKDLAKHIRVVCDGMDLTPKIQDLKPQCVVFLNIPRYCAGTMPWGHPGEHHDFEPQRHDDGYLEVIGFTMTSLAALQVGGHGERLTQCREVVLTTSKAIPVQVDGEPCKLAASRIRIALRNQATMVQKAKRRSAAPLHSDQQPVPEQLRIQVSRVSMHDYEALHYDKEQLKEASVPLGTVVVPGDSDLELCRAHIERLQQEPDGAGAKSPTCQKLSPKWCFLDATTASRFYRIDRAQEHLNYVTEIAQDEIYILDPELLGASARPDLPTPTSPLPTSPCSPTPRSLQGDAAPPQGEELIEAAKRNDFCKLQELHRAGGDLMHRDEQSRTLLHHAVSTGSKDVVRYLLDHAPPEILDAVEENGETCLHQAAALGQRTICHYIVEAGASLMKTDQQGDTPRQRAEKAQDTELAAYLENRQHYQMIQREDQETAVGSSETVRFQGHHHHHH

Compound | pIC50 [1, 6] | pIC50 [2] | pIC50 [3] | pIC50 [4] | pIC50 [5, 7] | pIC50 ([1]; DGKζ LIPGLO IC50, extruded liposome substrate) | pIC50 ([5]; DGKζ IC50, detergent/lipid micelle substrate)
CCn1ccc2c(CN3CCN(c4c(C#N)c(=O)n(C)c5cccnc45)CC3)cccc21 [Example 334, 4-{4-[(1-ethyl-1H-indol-4-yl)methyl]piperazin-1-yl}-1-methyl-2-oxo-1,2-dihydro-1,5-naphthyridine-3-carbonitrile] | 4.57 | 5.77 | 6.27 | – | – | – | –
Cn1c(=O)c(C#N)c(N2CCN(C(c3ccccc3)c3ccccc3)CC2)c2nc(Cl)ccc21 [Example 358, 6-chloro-4-[4-(diphenylmethyl)piperazin-1-yl]-1-methyl-2-oxo-1,2-dihydro-1,5-naphthyridine-3-carbonitrile] | < 3.62 | < 3.62 | 5.19 | – | – | – | –
Cn1c(=O)c([N+](=O)[O-])c(N2CCN(C(C)(C)c3ccc(F)cc3)CC2)c2nc(C#N)ccc21 [Example 260, 8-{4-[2-(4-fluorophenyl)propan-2-yl]piperazin-1-yl}-5-methyl-7-nitro-6-oxo-5,6-dihydro-1,5-naphthyridine-2-carbonitrile] | 5.28 | 5.80 | 7.74 | 6.46 | – | – | –
C#CCn1c(=O)c([N+](=O)[O-])c(N2CCN(C(c3ccccc3)c3ccccc3)CC2)c2ncccc21 [Example 165, 4-(4-benzhydrylpiperazin-1-yl)-3-nitro-1-(prop-2-yn-1-yl)-1,5-naphthyridin-2(1H)-one] | 5.39 | 5.55 | – | 5.47 | 4.04 | – | –
COc1ccc2c(n1)c(N1CCN(C(c3ccc(F)cc3)c3ccc(F)cc3)CC1)c(C#N)c(=O)n2C [Example 103, 4-(4-(bis(4-fluorophenyl)methyl)piperazin-1-yl)-6-methoxy-1-methyl-2-oxo-1,2-dihydro-1,5-naphthyridine-3-carbonitrile] | 6.00 | 5.21 | 6.40 | – | – | – | –
Cc1ccc2c(n1)c(N1CCN(C(c3ccc(F)cc3)c3ccc(F)cc3)CC1)c(C(=O)C(F)(F)F)c(=O)n2C [Example 228, 4-(4-(bis(4-fluorophenyl)methyl)piperazin-1-yl)-1,6-dimethyl-3-(2,2,2-trifluoroacetyl)-1,5-naphthyridin-2(1H)-one] | 5.01 | < 3.62 | 6.96 | – | < 3.62 | – | –
Cn1c(=O)cc(N2CCN(C(c3ccc(F)cc3)c3ccc(F)cc3)CC2)c2ncccc21 [Example 426, 4-(4-(bis(4-fluorophenyl)methyl)piperazin-1-yl)-1-methyl-1,5-naphthyridin-2(1H)-one] | < 3.62 | 3.77 | 4.70 | – | – | – | –
Cc1ccc(C(c2ccccc2)N2CCN(c3c(C#N)c(=O)n(C)c4ccc(Br)nc34)CC2)cc1 (centres unmarked) [Example 431, 6-bromo-1-methyl-4-{4-[(4-methylphenyl)(phenyl)methyl]piperazin-1-yl}-2-oxo-1,2-dihydro-1,5-naphthyridine-3-carbonitrile] | 5.05 | 5.05 | – | – | – | – | –
C=CCn1c(=O)c([N+](=O)[O-])c(N2CCN(C(c3ccccc3)c3ccccc3)CC2)c2ncccc21 [Example 176, 1-all-4-(4-benzhydrylpiperazin-1-yl)-3-nitro-1,5-naphthyridin-2(1H)-one] | 4.57 | < 3.62 | 5.52 | – | – | – | –
Cn1c(=O)c([N+](=O)[O-])c(N2CCN(Cc3cccc4ccccc34)CC2)c2nc(Br)ccc21 [Example 55, 6-bromo-1-methyl-4-(4-(naphthalen-1-ylmethyl)piperazin-1-yl)-3-nitro-1,5-naphthyridin-2(1H)-one] | 5.74 | 6.72 | 7.42 | – | – | – | –
Cn1c(=O)c(C#N)c(N2CCN(C(c3ccccc3)c3ccccc3O)CC2)c2ncccc21 (centres unmarked) [Example 349, 4-{4-[(2-hydroxyphenyl)(phenyl)methyl]piperazin-1-yl}-1-methyl-2-oxo-1,2-dihydro-1,5-naphthyridine-3-carbonitrile] | 4.49 | 5.89 | 5.85 | – | – | – | –
Cc1ccc(C(c2ccccc2)N2CCN(c3c(C#N)c(=O)n(C)c4ccc(C#N)nc34)CC2)cc1 (centres unmarked) [Example 408, 5-methyl-8-{4-[(4-methylphenyl)(phenyl)methyl]piperazin-1-yl}-6-oxo-5,6-dihydro-1,5-naphthyridine-2,7-dicarbonitrile] | 5.96 | 5.05 | – | – | – | – | –
CC(c1ccc(F)cc1)N1CCN(c2c(C#N)c(=O)n(CC3CC3)c3ccc(Br)nc23)CC1 (single isomer, unassigned) [Example 163, 6-bromo-1-(cyclopropylmethyl)-4-(4-(1-(4-fluorophenyl)ethyl)piperazin-1-yl)-2-oxo-1,2-dihydro-1,5-naphthyridine-3-carbonitrile] | – | 3.96 | – | < 3.62 | – | 3.96 | < 3.62
O=c1c([N+](=O)[O-])c(N2CCN(C(c3ccccc3)c3ccccc3)CC2)c2ncccc2n1CCC1OCCCO1 [Example 166, 1-(2-(1,3-dioxan-2-yl)ethyl)-4-(4-benzhydrylpiperazin-1-yl)-3-nitro-1,5-naphthyridin-2(1H)-one] | 3.64 | 3.68 | 5.42 | – | – | – | –
COc1ccc2c(n1)c(N1CCN(C(c3ccc(F)cc3)c3ccccc3O)CC1)c(C#N)c(=O)n2C (centres unmarked) [Example 104, 4-(4-((4-fluorophenyl)(2-hydroxyphenyl)methyl)piperazin-1-yl)-6-methoxy-1-methyl-2-oxo-1,2-dihydro-1,5-naphthyridine-3-carbonitrile] | 6.11 | 6.13 | 6.36 | – | – | – | –
